Reference: PubChem BioAssay (NCI)
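Exposure lasted 48 hours, with cells grown in 96-well plates and compounds tested at five concentrations. The concentration for 50% growth inhibition is given as GI50. TGI denotes the concentration required for complete inhibition of growth.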

Assays:
Test in all cases: inhibition of tumour cell growth, NCI panel, 48 h
HCT-116 colon = test system: HCT-116 colon
HOP-92 NSCLC = test system: HOP-92 NSCLC
HT29 colon = test system: HT29 colon
OVCAR-4 ovarian = test system: OVCAR-4 ovarian
SF-295 CNS = test system: SF-295 CNS
SK-MEL-5 melanoma = test system: SK-MEL-5 melanoma
UACC-257 melanoma = test system: UACC-257 melanoma
MCF7 breast = test system: MCF7 breast
MDA-MB-231 breast = test system: MDA-MB-231 breast
T-47D breast = test system: T-47D breast

Structure (SMILES)	TGI (HCT-116 colon) [µM]	TGI (HOP-92 NSCLC) [µM]	TGI (HT29 colon) [µM]	TGI (OVCAR-4 ovarian) [µM]	TGI (SF-295 CNS) [µM]	TGI (SK-MEL-5 melanoma) [µM]	TGI (UACC-257 melanoma) [µM]	TGI (MCF7 breast) [µM]	TGI (MDA-MB-231 breast) [µM]	TGI (T-47D breast) [µM]	GI50 (SF-295 CNS) [µM]	GI50 (SK-MEL-5 melanoma) [µM]	GI50 (UACC-257 melanoma) [µM]	GI50 (HCT-116 colon) [µM]	GI50 (HOP-92 NSCLC) [µM]	GI50 (HT29 colon) [µM]	GI50 (OVCAR-4 ovarian) [µM]	GI50 (MCF7 breast) [µM]	GI50 (MDA-MB-231 breast) [µM]	GI50 (T-47D breast) [µM]
COc1cc(C2(C)SCCCS2)c(I)c(OC)c1OC	> 100	> 100	> 100	> 100	> 100	> 100	> 100	–	–	–	–	–	–	–	–	–	–	–	–	–
Cc1ccc(C)c2c1CCc1cc3ccccc3nc1-2	> 100	–	> 100	> 100	> 100	> 100	> 100	–	–	–	–	–	–	–	–	–	–	–	–	–
c1ccc(-c2cnc3nc4ccccc4nc3n2)cc1	21.9	–	35.5	19.5	25.3	12.3	8.62	4.71	17.4	47	–	–	–	–	–	–	–	–	–	–
COc1cc(CC2CC(c3ccc4c(c3)OCO4)OC2=O)cc(OC)c1OC (stereo not given)	> 100	> 100	> 100	–	> 100	> 100	> 100	> 100	> 100	> 100	–	–	–	–	–	–	–	–	–	–
CCC1(CC)C(=O)[N-]C(=O)[N-]C1=O.[Au+].[Au+].c1ccc([PH+](c2ccccc2)c2ccccc2)cc1.c1ccc([PH+](c2ccccc2)c2ccccc2)cc1	–	–	–	–	2.91	2.26	2.53	–	–	–	1.52	1.05	1.26	–	–	–	–	–	–	–
C[C@@H](c1ccccc1)N(CC#N)C1CCC[C@H]1O (stereo not given in full)	> 100	> 100	> 100	> 100	> 100	> 100	> 100	–	–	–	–	–	–	–	–	–	–	–	–	–
COC(=O)/C(=N/O)C(C(=O)OC)C(=O)C(=O)Nc1c(Cl)cc(C)cc1S(=O)(=O)O (stereo not given)	> 100	> 100	> 100	> 100	> 100	> 100	> 100	–	–	–	–	–	–	–	–	–	–	–	–	–
C/C=C/C(=O)[O-].N.N.N.N.N.[Co+3].[O-][Cl+3]([O-])([O-])[O-]	> 100	> 100	> 100	> 100	> 100	> 100	> 100	–	–	–	> 100	> 100	> 100	> 100	> 100	> 100	> 100	–	–	–
O=C(O)c1oc2cccc3c2c1CCC3	> 100	> 100	> 100	> 100	> 100	> 100	> 100	–	–	–	–	–	–	–	–	–	–	–	–	–
C=C1C[C@@H]2[C@H](CC[C@]3(C)C(=O)CC[C@@H]23)[C@@]2(C)C=CC(=O)C=C12	29.9	> 100	> 100	> 100	74.5	33.7	–	> 62.2	> 100	> 100	28.5	7.5	–	14.7	> 100	37.1	42.7	14.6	35	> 51.6
CC(=O)O[C@H](C[C@H](C(C)C)N(C)C(=O)[C@@H](NC(=O)[C@H]1CCCCN1C)C(C)(C)C)c1nc(C(=O)N[C@@H](Cc2ccccc2)C[C@H](C)C(=O)O)cs1	> 25	0.297	> 25	> 25	> 8.94	0.0057	–	> 25	–	–	< 0.0025	< 0.0025	–	< 0.0025	< 0.0025	< 0.0025	0.00525	< 0.0025	< 0.0025	–
N=C1C(c2nc(-c3ccc(Br)cc3)cs2)=C(O)CN1CC1CCCO1 (stereo not given)	–	> 100	> 100	–	> 100	> 100	> 100	> 100	> 100	> 100	> 100	> 100	> 100	–	> 100	> 100	–	> 100	> 100	> 100
O=C(O)Cc1cc(=O)[nH]c2c1C(=O)CCC2	–	> 100	> 100	–	> 100	> 100	> 100	–	–	–	–	–	–	–	–	–	–	–	–	–
COC(=O)C1=C(c2cc(OC)c(OC)c(OC)c2)O[C@H](c2ccc3c(c2)OCO3)[C@H]1COC(C)=O	–	54.4	95.7	> 100	41	29.8	> 100	–	–	–	–	–	–	–	–	–	–	–	–	–
CCCCCCCCCCCCCCC(O)C1CCC(C(O)CCC(O)CCCCCC(O)CC2=CC(C)OC2=O)O1 (stereo not given)	11.1	11.7	8.68	8.89	10.3	2.3	2.94	–	–	–	–	–	–	–	–	–	–	–	–	–
C[C@]12CC[C@H]3[C@@H](CCC4=C[C@@H](OC5OCC(OC6OC(CO)C(O)C(O)C6O)C(O)C5O)CC[C@@]43C=O)[C@@]1(O)CCC2C1=CC(=O)OC1 (stereo not given in full)	1.25	5.13	5.35	1.07	3.53	–	–	> 100	> 73.7	> 24.8	–	–	–	–	–	–	–	–	–	–
COc1ccc(N2C(=O)C(N3C(=O)C=CC3=O)C2C=O)cc1 (stereo not given)	> 100	> 100	> 100	–	> 100	> 100	> 100	–	–	–	–	–	–	–	–	–	–	–	–	–
O=C1C2=C(c3ccccc31)C(c1ccc(Cl)cc1)NC(=S)N2 (stereo not given)	28.3	41.2	90.7	37.8	29.9	> 100	> 100	–	–	–	–	–	–	–	–	–	–	–	–	–
CCCCN(CCCC)C(=O)C(=O)CC(=O)/C=C/c1ccccc1	> 100	> 100	> 100	> 100	> 100	> 100	> 100	–	–	–	–	–	–	–	–	–	–	–	–	–
N#CC1CCc2c(c(-c3cn[nH]c3C(F)(F)F)nc3c(F)cc4[nH]ncc4c23)C1 (stereo not given)	19.6	26.5	> 100	–	46.2	9.79	74.5	47.4	38.1	26.1	14	2.83	12.9	3.15	4.42	9.6	–	3.5	4.96	3.06
O=C1C2=C(c3ccccc31)C(c1ccc(F)cc1)N1C(=O)CCSC1=N2 (stereo not given)	> 100	97.7	> 100	> 100	> 100	> 100	> 100	–	–	–	–	–	–	–	–	–	–	–	–	–

Structure (SMILES)	TGI (HCT-116 colon) [µM]	TGI (HOP-92 NSCLC) [µM]	TGI (HT29 colon) [µM]	TGI (OVCAR-4 ovarian) [µM]	TGI (SF-295 CNS) [µM]	TGI (SK-MEL-5 melanoma) [µM]	TGI (UACC-257 melanoma) [µM]	TGI (MCF7 breast) [µM]	TGI (MDA-MB-231 breast) [µM]	TGI (T-47D breast) [µM]	GI50 (SF-295 CNS) [µM]	GI50 (SK-MEL-5 melanoma) [µM]	GI50 (UACC-257 melanoma) [µM]	GI50 (HCT-116 colon) [µM]	GI50 (HOP-92 NSCLC) [µM]	GI50 (HT29 colon) [µM]	GI50 (OVCAR-4 ovarian) [µM]	GI50 (MCF7 breast) [µM]	GI50 (MDA-MB-231 breast) [µM]	GI50 (T-47D breast) [µM]
COC(=O)C12C3C4C1C1C2C3C41C(=O)N(C(C)C)C(C)C (stereo not given)	> 100	> 100	> 100	> 100	> 100	> 100	> 100	–	–	–	–	–	–	–	–	–	–	–	–	–
Cc1ccc([N+](=O)[O-])cc1NC(=O)C(=O)C1CCC2=C(Sc3ccccc3N2)C1=O (stereo not given)	> 100	> 100	> 100	> 100	> 100	> 100	> 100	> 100	> 100	–	–	–	–	–	–	–	–	–	–	–
COc1cc(CNC(=O)CCSc2nc3ccccc3c(=O)n2Cc2cc(OC)c(OC)c(OC)c2)cc(OC)c1OC	13.3	23.9	–	77.1	> 100	13.7	> 100	> 100	48.3	34	4.36	2.85	16.3	3.76	5.7	–	10.8	3.46	5.36	5.52
CC(=O)OCC(OC(C)=O)C(OC(C)=O)C(OC(C)=O)C(=O)CNn1c(-c2ccccc2Cl)nc2ccc(Br)cc2c1=O (stereo not given)	> 100	–	> 100	> 100	> 100	> 100	> 100	–	–	–	–	–	–	–	–	–	–	–	–	–
O=c1oc2cc(OS(=O)(=O)c3ccccc3)ccc2c2c1CCCCC2	> 100	–	> 100	> 100	> 100	> 100	> 100	> 100	> 100	> 100	> 100	2.88	7.31	3.62	–	2.84	4.58	5.14	> 100	3.79
c1ccc(-c2[nH]c(-c3ccccc3)c(-c3cnccn3)c2-c2cnccn2)cc1	> 100	> 100	> 100	> 100	> 100	> 100	> 100	–	–	–	–	–	–	–	–	–	–	–	–	–
CCOC(=O)/C(C#N)=C(N)/C(=N\Nc1cccc(C(F)(F)F)c1)C(=O)OCC	> 100	> 100	> 100	> 100	> 100	> 100	> 100	–	–	–	–	–	–	–	–	–	–	–	–	–
O=C(Nc1ccccc1C(=O)O)C(=O)C(C(=O)c1ccccc1-c1ccccc1)C1OC(=O)c2ccccc21 (stereo not given)	36.5	–	65.9	> 100	53.5	33.9	37.7	–	–	–	–	–	–	–	–	–	–	–	–	–
COC(=O)c1nn(C(=N)c2ccc(Cl)cc2)c2c1CCCCC2	> 100	> 100	> 100	> 100	> 100	> 100	> 100	–	–	–	–	–	–	–	–	–	–	–	–	–
CC(=O)NS(=O)(=O)c1ccc(-n2nc(-c3ccccc3)cc2C2=CC(=O)C=CC2=O)cc1	> 100	> 100	> 100	–	> 100	> 100	> 100	> 100	> 100	> 100	> 100	44.2	> 100	33.5	> 100	> 100	–	> 100	> 100	> 100
CC(=O)O[C@H]1C(=O)[C@@]2(C)C(C(OC(=O)c3ccccc3)[C@]3(O)CC(OC(=O)C(O)C(NC(=O)c4ccccc4)c4ccc(C)cc4)C(C)=C1C3(C)C)[C@]1(OC(C)=O)CO[C@@H]1C[C@@H]2O (stereo not given in full)	4.75	11.3	0.0861	> 25	–	–	> 25	–	–	–	–	–	–	–	–	–	–	–	–	–
O=c1cccccc1NCCNc1cccccc1=O	> 100	> 100	> 100	> 100	> 100	–	> 100	–	–	–	–	–	–	–	–	–	–	–	–	–
N[C@H](C(=O)O)[C@@H](Cl)CC(=O)O	> 100	> 100	> 100	> 100	> 100	> 100	> 100	–	–	–	–	–	–	–	–	–	–	–	–	–
O=C(Nc1ccccc1C(=O)Nc1nccs1)c1ccccc1	> 100	–	> 100	–	> 100	67.3	> 100	> 100	> 100	56.4	–	–	–	–	–	–	–	–	–	–
CNC(C)Cc1ccc(O)cc1 (stereo not given)	> 100	> 100	> 100	> 100	> 100	> 100	> 100	–	–	–	–	–	–	–	–	–	–	–	–	–
COc1cc2c3c(c1OC)Oc1ccc(cc1)CC1c4c(cc(OC)c(OC)c4Oc4ccc(cc4)CC3N(C)CC2)CCN1C (stereo not given)	27.2	> 100	35.2	36.3	36.1	31.7	28.6	–	–	–	–	–	–	–	–	–	–	–	–	–
CC1=NN(C(=O)c2cc(Cl)cc([N+](=O)[O-])c2)C(=O)C1N=Nc1ccccc1C(=O)O (stereo not given)	> 100	–	> 100	–	> 100	> 100	> 100	–	–	–	–	–	–	–	–	–	–	–	–	–
C#CCOc1cccc(Nc2ncc3ncn(C4CCN(C(=O)CCl)C4)c3n2)c1 (stereo not given)	> 62.5	> 62.5	> 62.5	–	> 62.5	> 62.5	> 62.5	> 62.5	> 62.5	> 62.5	> 62.5	> 62.5	> 62.5	21.5	> 62.5	> 62.5	–	59.2	> 62.5	> 62.5
O=C1NC(O)CCN1C1CC(O)C(CO)O1 (stereo not given)	> 100	> 100	–	–	> 100	> 100	> 100	> 100	> 100	> 100	–	–	–	–	–	–	–	–	–	–
C=C(C)[C@@H]1CC[C@]2(C)[C@H](CC=C3[C@@H]4[C@H](C)[C@@H](C)CC[C@]4(CO)CC[C@]32C)[C@@]1(C)CCCN	1.54	3.46	2.04	2.85	1.58	1.65	2.21	–	1.71	5.15	0.847	0.91	1.04	0.807	1.04	0.99	0.86	–	0.957	1.51
COc1cc(C(=O)C/C(CCC(=O)Nc2ccc(Cl)cc2Cl)=N/Nc2nnc(C)n2N)ccc1O	> 100	> 100	> 100	–	> 100	> 100	> 100	–	–	–	–	–	–	–	–	–	–	–	–	–
